US10231933B2, “Enteric coated, soluble creatine and polyethylene glycol composition for enhanced skeletal uptake of oral creatine” (CRYXA LLC, priority 2007, dated 2019)

Columns and labels:
[1] = Muscle biopsy (vastus lateralis) ATP, creatine phosphate and creatine concentrations pre- and post-supplementation; assay type: in vivo, human
Protocol: The participants selected had the following characteristics:
Pre and post muscle biopsies were obtained from the vastus lateralis muscle. Samples were immediately frozen in liquid nitrogen and stored at −80° C. for later analysis. The frozen samples were weighed to the nearest 0.1 mg, freeze dried for 8 hours and reweighed. The tissue samples were extracted and then analyzed for creatine, creatine phosphate, and ATP content via […].

[2] = known; cited from earlier work
[3] = Blood chemistries pre- and post-supplementation; assay type: in vivo, human; parameters: ALT (SGPT): unit not given here
[4] = Post 5 days supplementation, muscle biopsy
[5] = post-suppl., 5 days, control 20 gm/day, experimental 10 gm/day creatine equivalent
[6] = male, human, blood, oral, 20 gm/day

CN(CC(=O)O)C(=N)N.O [creatine•H2O, creatine monohydrate]
skeletal muscle uptake (comparison of the two) ([1]; 50 g creatine equivalents total (creatine HCl/PEG) vs 100 g total (creatine.H2O)): similar
ATP [1, 4]: 22.7 ± 1.2 μM · gdw^−1
Creatine [1, 4]: 39.2 ± 2.7 μM · gdw^−1
Creatine · ATP^−1 (ratio) [1, 4]: 2.01 ± 0.33 ratio
creatine phosphate [1, 4]: 75.6 ± 4.0 μM · gdw^−1
creatine phosphate/ATP^−1 [1, 4]: 3.34 ± 0.01
ATP ([1]; Pre, muscle biopsy): 21.6 ± 1.4 μM · gdw^−1
Creatine ([1]; Pre, muscle biopsy): 23.0 ± 4.2 μM · gdw^−1
Creatine · ATP^−1 (ratio) ([1]; Pre, muscle biopsy): 1.36 ± 0.36 ratio
creatine phosphate ([1]; Pre, muscle biopsy): 71.7 ± 4.8 μM · gdw^−1
creatine phosphate/ATP^−1 ([1]; Pre, muscle biopsy): 3.33 ± 0.01
muscle concentrations of free creatine and total creatine by the end of the study ([1]; end of 5 days supplementation): significantly elevated
CELLULAR ATP (molar ratio) [1, 5]: 5.07 ± 0.24 molar ratio
UPTAKE EFFICACY [1, 5]: 5.85 ± 1.85
free creatine [1, 5]: 39.2 ± 2.7 μM · gdw^−1
CELLULAR ATP (molar ratio) ([1]; pre-suppl., muscle biopsy): 4.48 ± 0.30 molar ratio
free creatine ([1]; pre-suppl., muscle biopsy): 23.0 ± 4.2 μM · gdw^−1
breakdown in the stomach [2]: rapidly breaks down in the stomach to form creatinine
time of peak blood concentration post-ingestion (5 hour sampling, experimental peak may not have been fully achieved): two hours
Integrated area under curve (5 hr sampling period post-ingestion): 91.8 ± 5.5 mg · dL^−1 · 5 hrs^−1
Circulating concentrations of creatine (Pre ingestion): 0.47 ± 0.35 mg/dL
concentration at 15 min [6]: 40.8 ± 11.4 µg/mL
concentration at 30 min [6]: 138 ± 18.6 µg/mL
concentration at 1 h [6]: 208 ± 18.7 µg/mL
concentration at 2 h [6]: 260 ± 29.6 µg/mL
concentration at 3 h [6]: 242 ± 12.9 µg/mL
concentration at 4 h [6]: 162 ± 11.3 µg/mL
concentration at 5 h [6]: 102 ± 8.5 µg/mL
time by which blood creatine concentrations increased significantly (post-ingestion): ≤ 15 min
peak blood concentration of creatine (within five hours post-ingestion): 25.99 ± 2.96 mg/dL
A/G Ratio (ratio) ([3]; Post): 1.88 ± 0.06 ratio
ALT (SGPT) ([3]; Post): 20.9 ± 4.1
AST (SGOT) ([3]; Post): 23.3 ± 2.1 IU · L^−1
Albumin, Serum ([3]; Post): 4.5 ± 0.1 g/dL
Alk. Phosphatase ([3]; Post): 85.4 ± 9.3 IU · L^−1
BUN ([3]; Post): 17.9 ± 1.8 mg/dL
BUN/Creatinine (ratio) ([3]; Post): 16.3 ± 1.4 ratio
Bilirubin, Total ([3]; Post): 0.6 ± 0.1 mg/dL
Calcium, Serum ([3]; Post): 9.7 ± 0.1 mg/dL
Carbon Dioxide ([3]; Post): 25.8 ± 0.7 mM · L^−1
Chloride, Serum ([3]; Post): 101.9 ± 0.7 mM · L^−1
Creatinine, Serum ([3]; Post): 1.09 ± 0.07 mg/dL
Globulin, Serum ([3]; Post): 2.4 ± 0.1 g/dL
Glucose, Serum ([3]; Post): 82.6 ± 4.3 mg/dL
Iron, Serum ([3]; Post): 103.3 ± 14.2 µg/dL
LDH ([3]; Post): 157.9 ± 8.2 IU · L^−1
Phosphorus, Serum ([3]; Post): 4.3 ± 0.3 mg/dL
Potassium, Serum ([3]; Post): 4.4 ± 0.1 mM · L^−1
Protein, Serum ([3]; Post): 6.9 ± 0.1 g/dL
Sodium, Serum ([3]; Post): 138.6 ± 0.6 mM · L^−1
Uric Acid, Serum ([3]; Post): 4.7 ± 0.2 mg/dL
A/G Ratio (ratio) ([3]; Pre): 1.77 ± 0.06 ratio
ALT (SGPT) ([3]; Pre): 24.1 ± 4.5
AST (SGOT) ([3]; Pre): 25.3 ± 3.6 IU · L^−1
Albumin, Serum ([3]; Pre): 4.5 ± 0.1 g/dL
Alk. Phosphatase ([3]; Pre): 78.7 ± 10.1 IU · L^−1
BUN ([3]; Pre): 16.4 ± 1.4 mg/dL
BUN/Creatinine (ratio) ([3]; Pre): 17.8 ± 1.3 ratio
Bilirubin, Total ([3]; Pre): 0.6 ± 0.1 mg/dL
Calcium, Serum ([3]; Pre): 9.9 ± 0.1 mg/dL
Carbon Dioxide ([3]; Pre): 26.7 ± 0.4 mM · L^−1
Chloride, Serum ([3]; Pre): 101.0 ± 0.5 mM · L^−1
Creatinine, Serum ([3]; Pre): 0.93 ± 0.04 mg/dL
Globulin, Serum ([3]; Pre): 2.6 ± 0.1 g/dL
Glucose, Serum ([3]; Pre): 86.7 ± 2.7 mg/dL
Iron, Serum ([3]; Pre): 88.8 ± 10.5 µg/dL
LDH ([3]; Pre): 155.0 ± 6.0 IU · L^−1
Phosphorus, Serum ([3]; Pre): 4.3 ± 0.1 mg/dL
Potassium, Serum ([3]; Pre): 4.3 ± 0.1 mM · L^−1
Protein, Serum ([3]; Pre): 7.1 ± 0.1 g/dL
Sodium, Serum ([3]; Pre): 139.1 ± 0.5 mM · L^−1
Uric Acid, Serum ([3]; Pre): 5.6 ± 0.3 mg/dL
